Values of other authors as cited in article PMC8042970, “A phase 1 study of dalpiciclib, a cyclin-dependent kinase 4/6 inhibitor in Chinese patients with advanced breast cancer” (Biomarker Research, 2021).
Read-outs that look alike come from different tables or passages of the source.

Columns and labels:
[1] = tested on: CDK6; details: ref product label or FDA review
[2] = tested on: HR-positive and HER2-negative metastatic breast cancer
[3] = design: method as in product label or FDA review; details: ref product label or FDA review
[4] = tested on: CDK4; details: ref product label or FDA review
[5] = design: method as in product label or FDA review; details: ref product label or FDA review; remark: listed apart in the source
[6] = design: method as in product label or FDA review; details: ref product label or FDA review; remark: listed apart in the source
[7] = single agent abemaciclib, heavily pretreated population
[8] = single agent palbociclib, moderately pretreated population
[9] = phase 1 dose-escalation study of palbociclib

## CCN1CCN(Cc2ccc(Nc3ncc(F)c(-c4cc(F)c5nc(C)n(C(C)C)c5c4)n3)nc2)CC1 [abemaciclib]
[1]
  IC50: 9.9 nM
[2]; [7]
  DCR: 66.7%
  Median PFS: 5.9 months
[3]
  Excretion, Feces: 81%
  Excretion, Urine: 3%
[4]
  IC50: […]
[5]
  Metabolism: Liver (CYP3A4)

## CC(=O)c1c(C)c2cnc(Nc3ccc(N4CCNCC4)cn3)nc2n(C2CCCC2)c1=O [palbociclib]
[1]
  IC50: […]
[2]; [8]
  DCR: 63.8%
[9]
  MTD and recommended phase 2 dose: 125 mg
  Patients with DLT: 12%
Phase 1 trial of palbociclib
  Patients with QTc value of > 500 ms: none
  Patients with maximum increase from baseline QTc of < 30 ms: 26 of 41
[4]
  IC50: […]
[6]; at recommended dose
  AUCss: 1633 to 1982 ng·h/mL
[6]
  Tmax: 6−12 h
  Volume of distribution: 2583 L
  t1/2: 29 h

## CN(C)C(=O)c1cc2cnc(Nc3ccc(N4CCNCC4)cn3)nc2n1C1CCCC1 [ribociclib]
[3]
  Excretion, Feces: 69%
  Excretion, Urine: 23%
Phase 1 study of ribociclib
  DLT: QTcF prolongation: 1
  DLT: increased creatinine: 1
  DLT: mucositis: 1
  DLT: neutropenia: 3 cases
  DLT: pulmonary embolism: 1
  DLT: thrombocytopenia: 2 cases
Phase 1 study of ribociclib, first treatment cycle
  Patients with DLTs: 13%
ribociclib
  Patients with QTcF prolongation: 6–9%
[4]
  IC50: […]
[6]; at recommended dose
  Cmin,ss: 631 ng/mL
[6]
  Mild hepatic/renal impairment: No effect on exposure
  Tmax: 1−4 h
  Volume of distribution: 1090 L
[5]
  Metabolism: Liver (CYP3A4)
